The values below come from article PMC10841072 (European journal of medicinal chemistry, 2023).

The target of assay [1] is human D3 expressed in HEK cells (Homo sapiens, UniProt P35462). Nature of the assay: Radioligand binding assay with [125I]IABN, D3R. Conditions: for D2R/D3R selectivity, (Ki for D2R)/(Ki for D3R): ratio of Ki values.
Assay [2] addresses human D3 receptor over-expressed in CHO-K1 cells (Homo sapiens, UniProt P35462). Nature of the assay: PathHunter β-arrestin recruitment assay, competition with dopamine. It counts as cell-based. Particulars: 30 nM (EC80) dopamine, Mean ± SEM, at least three experiments.
The target of assay [3] is human D2 (long) expressed in HEK cells (Homo sapiens, UniProt P14416). Kind of assay: Radioligand binding assay with [125I]IABN, D2R.
human D2 (long) expressed in HEK cells, sequence (P14416 whole entry): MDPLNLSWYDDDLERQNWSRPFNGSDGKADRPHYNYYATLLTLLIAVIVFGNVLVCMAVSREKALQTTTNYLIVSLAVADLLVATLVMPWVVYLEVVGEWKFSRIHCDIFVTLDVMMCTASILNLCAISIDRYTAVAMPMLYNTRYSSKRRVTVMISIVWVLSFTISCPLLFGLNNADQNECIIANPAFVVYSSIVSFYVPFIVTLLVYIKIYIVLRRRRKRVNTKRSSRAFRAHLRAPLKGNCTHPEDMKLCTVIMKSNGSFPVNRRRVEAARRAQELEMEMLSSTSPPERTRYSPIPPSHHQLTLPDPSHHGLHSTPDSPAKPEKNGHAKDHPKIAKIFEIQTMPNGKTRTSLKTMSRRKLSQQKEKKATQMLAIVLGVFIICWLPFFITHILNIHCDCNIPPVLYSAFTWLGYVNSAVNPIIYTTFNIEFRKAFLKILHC

human D3 receptor over-expressed in CHO-K1 cells, sequence (P35462 whole entry): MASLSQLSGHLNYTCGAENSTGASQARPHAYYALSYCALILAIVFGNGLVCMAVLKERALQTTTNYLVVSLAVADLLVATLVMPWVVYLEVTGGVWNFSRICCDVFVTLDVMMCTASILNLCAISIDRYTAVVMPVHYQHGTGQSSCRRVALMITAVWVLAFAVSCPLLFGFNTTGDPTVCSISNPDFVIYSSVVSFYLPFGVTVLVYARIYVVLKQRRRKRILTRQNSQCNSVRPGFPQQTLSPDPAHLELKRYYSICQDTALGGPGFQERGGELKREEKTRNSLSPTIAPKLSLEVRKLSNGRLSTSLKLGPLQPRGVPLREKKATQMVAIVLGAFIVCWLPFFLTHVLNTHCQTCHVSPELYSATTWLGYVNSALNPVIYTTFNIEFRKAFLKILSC
human D3 expressed in HEK cells, sequence (P35462 whole entry): as above

With `C=CCN1C[C@H](OCCN)C[C@H]1CNC(=O)c1cc(CCCF)cc(OC)c1OC` [Compound 35a, N-(((2S,4R)-1-allyl-4-(2-aminoethoxy)pyrrolidin-2-yl)methyl)-5-(3-fluoropropyl)-2,3-dimethoxybenzamide], the “higher affinity for D3R versus D2R” value in assay [1] came to 11 fold. In the case of `C=CCN1C[C@H](OC(=O)Nc2ccoc2)C[C@H]1CNC(=O)c1cc(CCCF)cc(OC)c1OC` [Compound 37h, (3R,5S)-1-allyl-5-((5-(3-fluoropropyl)-2,3-dimethoxybenzamido)methyl)pyrrolidin-3-yl furan-3-ylcarbamate], the “D2R/D3R selectivity, (Ki for D2R)/(Ki for D3R)” value in assay [1] was “higher affinity for D2R versus D3R”. As for `C=CCN1C[C@H](OC(=O)Nc2ccc(-c3ccccn3)cc2)C[C@H]1CNC(=O)c1cc(CCCF)cc(OC)c1OC` [Compound 37k, (3R,5S)-1-allyl-5-((5-(3-fluoropropyl)-2,3-dimethoxybenzamido)methyl)pyrrolidin-3-yl (4-(pyridin-2-yl)phenyl)carbamate], the “IC50 in β-arrestin recruitment assay (inhibiting dopamine)” value in assay [2] is recorded as “much lower potency”. Same read-out and setting: under `C=CCN1C[C@H](OC(=O)Nc2ccc(-c3ccsc3)cc2)C[C@H]1CNC(=O)c1cc(CCCF)cc(OC)c1OC` [Compound 37l, (3R,5S)-1-allyl-5-((5-(3-fluoropropyl)-2,3-dimethoxybenzamido)methyl)pyrrolidin-3-yl (4-(thiophen-3-yl)phenyl)carbamate] stands “much lower potency”. Turning to `C=CCN1C[C@@H](OCCCN)C[C@H]1CNC(=O)c1cc(CCCF)cc(OC)c1OC` [Compound 40, N-(((2S,4S)-1-allyl-4-(3-aminopropoxy)pyrrolidin-2-yl)methyl)-5-(3-fluoropropyl)-2,3-dimethoxybenzamide], in assay [3], the Ki was found to be 16.9 ± 0.9 nM. On to `C=CCN1C[C@@H](OC(=O)Nc2ccc(-c3ccsc3)cc2)C[C@H]1CNC(=O)c1cc(CCCF)cc(OC)c1OC` [Compound 41, (3S,5S)-1-allyl-5-((5-(3-fluoropropyl)-2,3-dimethoxybenzamido)methyl)pyrrolidin-3-yl (4-(thiophen-3-yl)phenyl)carbamate], for which the “D2R/D3R selectivity, (Ki for D2R)/(Ki for D3R)” value in assay [1] was “modest”. For `CCN1C[C@H](OC(=O)Nc2ccc(-c3ccsc3)cc2)C[C@H]1CNC(=O)c1cc(CCCF)cc(OC)c1OC` [Compound 47, (3R,5S)-1-ethyl-5-((5-(3-fluoropropyl)-2,3-dimethoxybenzamido)methyl)pyrrolidin-3-yl (4-(thiophen-3-yl)phenyl)carbamate], the “IC50 in β-arrestin recruitment assay (inhibiting dopamine)” value in assay [2] is on record as “much lower potency”.
